Assay results: patent publication US8853418B2, “Cyclopentylpyrazoles as N-type calcium channel blockers” (Janssen Pharmaceutica NV, priority 2012, dated 2014)
pIC50: −log10 of the molar value.

Molecular target: N-type calcium channel (α1B (Cav2.2), β3 and α2δ subunits) (Homo sapiens, UniProt Q00975)
Assay: Functional Assay: Antagonism of N-Type Calcium Channel (FDSS calcium mobilization, KCl depolarization)
Type: cell-based
Conditions: for pIC50: HEK cell line, 50 mM KCl depolarization, six-point concentration-response, read-out: FDSS IC50
Method: A stable cell line (HEK parent) co-expressing the α1B (Cav2.2), β3 and α2δ subunits of the N-type calcium channel subunits was used. These cells were routinely grown as monolayers in low glucose-containing Dulbecco's Modified Eagle Medium supplemented with 10% FBS, 2 mM L-glutamine, 100 I.U./mL penicillin, 100 μg/mL streptomycin, 400 μg/mL G418 and 200 μg/mL Zeocin (split ratio=1:5). Cells were maintained in 5% CO2 at 37° C. Compounds of Formula (I) were prepared as 10 mM stocks in DMSO from neat compound, if available. Otherwise, the 5 or 10 mM DMSO stock solutions provided in-house were used.
Calcium mobilization responses to KCl depolarization were evaluated by measuring the intensity of calcium-mediated fluorescent signal in the presence of BD Calcium Assay Dye (BD Biosciences, Franklin Lakes, N.J., U.S.A.), utilizing a Functional Drug Screening System (FDSS) by Hamamatsu Corporation (Bridgewater, N.J. U.S.A.).
Twenty-four hr prior to assay, cells were seeded in clear-base poly-D-lysine-coated 384-well plates (BD Biosciences) at a density of 5,000 cells per well in culture medium and grown overnight in 5% CO2 at 37° C. On the day of assay, growth media were removed, and cells were loaded with BD calcium assay dye (BD Biosciences) for 35 min at 37° C. under 5% CO2 and then for 25 min at room temp. Utilizing the FDSS, cells were exposed to representative compounds of Formula (I) at varying concentrations, and intracellular calcium was measured for 5 min prior to the addition of 50 mM KCl for an additional 3 min of measurement.
Calculations and Formulas
IC50 values for representative compounds of Formula (I) were determined from six-point concentration-response experiments and represent the concentration of said compound required to inhibit 50% of the maximal response. Maximal fluorescence intensity (FI) achieved upon addition of 50 mM KCl was exported from the FDSS software and further analyzed using GraphPad Prism 3.02 (Graph Pad Software Inc., San Diego, Calif., U.S.A.). Data were normalized to the maximum average counts from quadruplicate wells for each condition in the presence of 50 mM KCl and to the minimum average counts in the presence of buffer. Theoretical curves were generated using nonlinear regression curve-fitting analysis of either sigmoidal concentration-response or sigmoidal concentration-response (variable slope), and the IC50 values with the best-fit curve determined by GraphPad Prism were reported.

N-type calcium channel (α1B (Cav2.2), β3 and α2δ subunits), sequence (Q00975 whole entry): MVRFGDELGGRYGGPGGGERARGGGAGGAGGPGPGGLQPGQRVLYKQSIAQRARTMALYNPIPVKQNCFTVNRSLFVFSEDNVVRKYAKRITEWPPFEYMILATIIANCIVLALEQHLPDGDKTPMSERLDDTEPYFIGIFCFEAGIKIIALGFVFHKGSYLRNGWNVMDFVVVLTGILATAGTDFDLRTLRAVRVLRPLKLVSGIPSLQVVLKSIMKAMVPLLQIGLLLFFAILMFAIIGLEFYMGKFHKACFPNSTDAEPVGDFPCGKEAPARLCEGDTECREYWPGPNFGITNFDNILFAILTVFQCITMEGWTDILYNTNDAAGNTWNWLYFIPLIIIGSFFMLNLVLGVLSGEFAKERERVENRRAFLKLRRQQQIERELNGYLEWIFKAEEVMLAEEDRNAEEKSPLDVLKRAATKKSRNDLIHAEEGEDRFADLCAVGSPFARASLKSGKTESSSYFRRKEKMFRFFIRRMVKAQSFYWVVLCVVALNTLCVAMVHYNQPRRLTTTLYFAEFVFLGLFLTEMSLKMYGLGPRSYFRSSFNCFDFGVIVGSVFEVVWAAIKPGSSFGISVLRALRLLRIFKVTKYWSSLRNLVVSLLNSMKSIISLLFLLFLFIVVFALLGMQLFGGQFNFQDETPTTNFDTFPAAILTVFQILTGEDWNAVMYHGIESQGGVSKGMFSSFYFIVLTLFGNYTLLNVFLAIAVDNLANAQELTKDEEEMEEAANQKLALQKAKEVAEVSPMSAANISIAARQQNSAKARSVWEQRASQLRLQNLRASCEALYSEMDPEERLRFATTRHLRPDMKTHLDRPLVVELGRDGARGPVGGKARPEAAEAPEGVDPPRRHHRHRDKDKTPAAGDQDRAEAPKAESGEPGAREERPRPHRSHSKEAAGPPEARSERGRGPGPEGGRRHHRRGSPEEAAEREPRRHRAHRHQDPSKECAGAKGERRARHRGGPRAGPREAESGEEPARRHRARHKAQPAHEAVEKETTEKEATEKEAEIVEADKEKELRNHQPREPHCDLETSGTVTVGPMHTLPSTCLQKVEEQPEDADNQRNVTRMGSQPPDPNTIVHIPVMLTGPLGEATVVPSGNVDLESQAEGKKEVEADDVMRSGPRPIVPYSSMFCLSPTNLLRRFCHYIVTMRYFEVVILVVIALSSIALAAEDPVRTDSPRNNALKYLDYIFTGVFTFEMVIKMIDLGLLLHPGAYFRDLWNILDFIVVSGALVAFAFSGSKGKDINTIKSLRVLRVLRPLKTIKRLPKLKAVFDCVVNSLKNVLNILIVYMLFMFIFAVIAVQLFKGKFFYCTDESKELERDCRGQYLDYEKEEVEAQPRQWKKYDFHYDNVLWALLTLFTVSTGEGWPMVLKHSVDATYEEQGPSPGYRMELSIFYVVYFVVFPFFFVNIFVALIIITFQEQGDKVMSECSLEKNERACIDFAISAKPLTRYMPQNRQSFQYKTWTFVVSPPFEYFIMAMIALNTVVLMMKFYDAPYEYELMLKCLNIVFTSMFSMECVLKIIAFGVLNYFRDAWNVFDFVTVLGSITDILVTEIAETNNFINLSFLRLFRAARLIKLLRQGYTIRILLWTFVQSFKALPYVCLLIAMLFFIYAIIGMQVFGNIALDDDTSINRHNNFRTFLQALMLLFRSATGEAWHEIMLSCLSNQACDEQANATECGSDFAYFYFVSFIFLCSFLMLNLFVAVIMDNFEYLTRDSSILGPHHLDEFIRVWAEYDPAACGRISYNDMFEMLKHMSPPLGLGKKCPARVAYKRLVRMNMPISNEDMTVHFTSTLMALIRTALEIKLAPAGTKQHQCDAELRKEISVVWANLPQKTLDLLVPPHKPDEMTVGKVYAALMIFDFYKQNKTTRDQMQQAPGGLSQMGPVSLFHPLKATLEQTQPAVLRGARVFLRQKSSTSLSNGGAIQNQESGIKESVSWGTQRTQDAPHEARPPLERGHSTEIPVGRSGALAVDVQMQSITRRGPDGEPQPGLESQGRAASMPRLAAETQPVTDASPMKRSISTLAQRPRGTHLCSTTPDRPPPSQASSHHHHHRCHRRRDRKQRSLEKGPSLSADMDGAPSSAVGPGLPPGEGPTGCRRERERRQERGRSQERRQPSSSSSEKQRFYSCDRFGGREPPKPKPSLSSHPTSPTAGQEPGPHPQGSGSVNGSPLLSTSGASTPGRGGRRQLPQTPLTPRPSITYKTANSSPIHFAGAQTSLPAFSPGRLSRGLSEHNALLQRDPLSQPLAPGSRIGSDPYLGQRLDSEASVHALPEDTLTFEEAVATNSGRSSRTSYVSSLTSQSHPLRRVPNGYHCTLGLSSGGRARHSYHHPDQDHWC
N-type calcium channel (α1B (Cav2.2), β3 and α2δ subunits), sequence (P54284 whole entry partner): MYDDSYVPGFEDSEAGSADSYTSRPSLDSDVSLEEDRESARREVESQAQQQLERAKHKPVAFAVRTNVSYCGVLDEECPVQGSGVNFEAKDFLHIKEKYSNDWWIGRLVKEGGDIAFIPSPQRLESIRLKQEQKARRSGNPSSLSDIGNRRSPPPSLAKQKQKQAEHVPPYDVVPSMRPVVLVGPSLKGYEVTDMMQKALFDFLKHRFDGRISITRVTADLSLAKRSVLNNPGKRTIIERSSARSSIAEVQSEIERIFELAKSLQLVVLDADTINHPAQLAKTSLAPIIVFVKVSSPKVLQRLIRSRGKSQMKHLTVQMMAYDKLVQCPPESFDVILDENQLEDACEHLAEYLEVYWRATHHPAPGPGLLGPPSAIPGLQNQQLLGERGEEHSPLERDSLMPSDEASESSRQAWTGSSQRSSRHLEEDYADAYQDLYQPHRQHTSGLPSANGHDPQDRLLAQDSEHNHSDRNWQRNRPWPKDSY
N-type calcium channel (α1B (Cav2.2), β3 and α2δ subunits), sequence (P54289 25-946 partner limits assumed): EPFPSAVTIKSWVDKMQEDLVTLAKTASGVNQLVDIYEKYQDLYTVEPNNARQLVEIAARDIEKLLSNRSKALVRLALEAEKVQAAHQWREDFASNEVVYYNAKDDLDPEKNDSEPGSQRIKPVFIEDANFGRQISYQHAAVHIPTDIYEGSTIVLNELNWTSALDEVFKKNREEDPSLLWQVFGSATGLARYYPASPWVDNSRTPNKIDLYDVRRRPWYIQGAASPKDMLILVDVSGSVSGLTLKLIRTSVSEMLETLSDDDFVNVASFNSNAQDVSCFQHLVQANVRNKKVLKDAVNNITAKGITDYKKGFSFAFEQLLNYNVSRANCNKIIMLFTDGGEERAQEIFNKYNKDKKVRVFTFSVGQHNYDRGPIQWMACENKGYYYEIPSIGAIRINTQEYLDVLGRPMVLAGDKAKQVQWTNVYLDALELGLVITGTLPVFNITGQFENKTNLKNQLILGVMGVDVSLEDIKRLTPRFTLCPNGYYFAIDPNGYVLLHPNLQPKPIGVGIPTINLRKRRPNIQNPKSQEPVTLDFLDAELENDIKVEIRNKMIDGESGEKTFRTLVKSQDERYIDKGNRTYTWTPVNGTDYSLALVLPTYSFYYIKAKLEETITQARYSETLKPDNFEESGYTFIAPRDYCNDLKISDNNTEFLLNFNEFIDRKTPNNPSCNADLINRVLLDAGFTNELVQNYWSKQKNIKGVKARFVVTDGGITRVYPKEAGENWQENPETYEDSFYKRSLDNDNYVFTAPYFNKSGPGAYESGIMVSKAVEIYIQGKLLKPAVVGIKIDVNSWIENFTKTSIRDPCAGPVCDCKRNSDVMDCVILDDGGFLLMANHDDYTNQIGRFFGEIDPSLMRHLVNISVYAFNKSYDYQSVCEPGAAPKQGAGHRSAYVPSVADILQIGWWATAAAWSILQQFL
N-type calcium channel (α1B (Cav2.2), β3 and α2δ subunits), sequence (P54289 947-1103 partner limits assumed): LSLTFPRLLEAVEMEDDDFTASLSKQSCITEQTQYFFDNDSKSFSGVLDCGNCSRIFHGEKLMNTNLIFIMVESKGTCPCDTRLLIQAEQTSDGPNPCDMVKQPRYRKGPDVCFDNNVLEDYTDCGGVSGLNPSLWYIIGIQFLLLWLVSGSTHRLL

pIC50	inhibition at 1 µM	inhibition at 0.33 µM	Compound
6.52			CCc1ccccc1-n1nc2c(c1-c1ccc(Cl)cc1)CC(/C=N\C(=O)OC(C)(C)C)C2 (racemic) [Compound 15, tert-butyl{[3-(4-chlorophenyl)-2-(2-ethylphenyl)-2,4,5,6-tetrahydrocyclopenta[c]pyrazol-5-yl]methylidene}carbamate]
6.70			COc1ccccc1-n1nc2c(c1-c1ccc(Cl)cc1)CC(CCO)C2 (centres unmarked) [Compound 1, 2-[3-(4-chlorophenyl)-2-(2-methoxyphenyl)-2,4,5,6-tetrahydrocyclopenta[c]pyrazol-5-yl]ethanol]
	81%		C=CCC1Cc2nn(-c3ccccc3OC)c(-c3ccc(Cl)cc3)c2C1 (centres unmarked) [Compound 4, 3-(4-chlorophenyl)-2-(2-methoxyphenyl)-5-prop-2-en-1-yl-2,4,5,6-tetrahydrocyclopenta[c]pyrazole]
6.31		75%	COc1ccccc1-n1nc2c(c1-c1ccc(Cl)cc1)CC(C(N)=O)C2 (centres unmarked) [Compound 6, 3-(4-chlorophenyl)-2-(2-methoxyphenyl)-2,4,5,6-tetrahydrocyclopenta[c]pyrazole-5-carboxamide]
		68%	COc1ccccc1-n1nc2c(c1-c1ccccc1)CC(CNS(C)(=O)=O)C2 (centres unmarked) [Compound 7, N-{[2-(2-methoxyphenyl)-3-phenyl-2,4,5,6-tetrahydrocyclopenta[c]pyrazol-5-yl]methyl}methanesulfonamide]
		59%	COc1ccccc1-n1nc2c(c1-c1ccccc1)CC(C#N)C2 (centres unmarked) [Compound 9, 2-(2-methoxyphenyl)-3-phenyl-2,4,5,6-tetrahydrocyclopenta[c]pyrazole-5-carbonitrile]
6.52		83%	COc1ccccc1-n1nc2c(c1-c1ccc(Cl)cc1)CC(C#N)C2 (centres unmarked) [Compound 10, 3-(4-chlorophenyl)-2-(2-methoxyphenyl)-2,4,5,6-tetrahydrocyclopenta[c]pyrazole-5-carbonitrile]
7.05			CCOC(=O)C1Cc2nn(-c3ccccc3CC)c(-c3ccc(Cl)cc3)c2C1 (centres unmarked) [Compound 14, ethyl 3-(4-chlorophenyl)-2-(2-ethylphenyl)-2,4,5,6-tetrahydrocyclopenta[c]pyrazole-5-carboxylate]
6.74			CCc1ccccc1-n1nc2c(c1-c1ccc(Cl)cc1)CC(COC(=O)N(CC)CC)C2 (centres unmarked) [Compound 17, [3-(4-chlorophenyl)-2-(2-ethylphenyl)-2,4,5,6-tetrahydrocyclopenta[c]pyrazol-5-yl]methyl diethylcarbamate]
6.70			CCc1ccccc1-n1nc2c(c1-c1ccc(Cl)cc1)CC(CNS(C)(=O)=O)C2 (centres unmarked) [Compound 18, N-{[3-(4-chlorophenyl)-2-(2-ethylphenyl)-2,4,5,6-tetrahydrocyclopenta[c]pyrazol-5-yl]methyl}methanesulfonamide]
6.89			CCc1ccccc1-n1nc2c(c1-c1ccc(Cl)cc1)CC(CNC(=O)C(F)(F)F)C2 (centres unmarked) [Compound 19, N-{[3-(4-chlorophenyl)-2-(2-ethylphenyl)-2,4,5,6-tetrahydrocyclopenta[c]pyrazol-5-yl]methyl}-2,2,2-trifluoroacetamide]
6.59			CC(C)(C)OC(=O)NCCC1Cc2nn(-c3ccccc3C(F)(F)F)c(-c3ccc(Cl)cc3)c2C1 (centres unmarked) [Compound 20, tert-butyl(2-{3-(4-chlorophenyl)-2-[2-(trifluoromethyl)phenyl]-2,4,5,6-tetrahydrocyclopenta[c]pyrazol-5-yl}ethyl)carbamate]
	65%		CS(=O)(=O)NCCC1Cc2nn(-c3ccccc3C(F)(F)F)c(-c3ccc(Cl)cc3)c2C1 (centres unmarked) [Compound 21, N-(2-{3-(4-chlorophenyl)-2-[2-(trifluoromethyl)phenyl]-2,4,5,6-tetrahydrocyclopenta[c]pyrazol-5-yl}ethyl)methanesulfonamide]
6.66			CN(C)C(=O)NCCC1Cc2nn(-c3ccccc3C(F)(F)F)c(-c3ccc(Cl)cc3)c2C1 (centres unmarked) [Compound 22, 3-(2-{3-(4-chlorophenyl)-2-[2-(trifluoromethyl)phenyl]-2,4,5,6-tetrahydrocyclopenta[c]pyrazol-5-yl}ethyl)-1,1-dimethylurea]
6.85			CN(C)C(=O)OC1Cc2nn(-c3ccccc3OC(F)(F)F)c(-c3ccc(Cl)cc3)c2C1 (centres unmarked) [Compound 23, 3-(4-chlorophenyl)-2-[2-(trifluoromethoxy)phenyl]-2,4,5,6-tetrahydrocyclopenta[c]pyrazol-5-yl dimethylcarbamate]
6.82			O=C(OC1Cc2nn(-c3ccccc3OC(F)(F)F)c(-c3ccc(Cl)cc3)c2C1)N1CCOCC1 (centres unmarked) [Compound 24, 3-(4-chlorophenyl)-2-[2-(trifluoromethoxy)phenyl]-2,4,5,6-tetrahydrocyclopenta[c]pyrazol-5-ylmorpholine-4-carboxylate]
	61%		OC1Cc2nn(-c3ccccc3OC(F)(F)F)c(-c3ccc(Cl)cc3)c2C1 (centres unmarked) [Compound 25, 3-(4-chlorophenyl)-2-[2-(trifluoromethoxy)phenyl]-2,4,5,6-tetrahydrocyclopenta[c]pyrazol-5-ol]
	62%		COc1ccccc1-n1nc2c(c1-c1ccc(Cl)cc1)CC(O)C2 (centres unmarked) [Compound 26, 3-(4-chlorophenyl)-2-(2-methoxyphenyl)-2,4,5,6-tetrahydrocyclopenta[c]pyrazol-5-ol]
7.23			COc1ccccc1-n1nc2c(c1-c1ccc(Cl)cc1)CC(=O)C2 [Compound 35, 3-(4-chlorophenyl)-2-(2-methoxyphenyl)-2,6-dihydrocyclopenta[c]pyrazol-5(4H)-one]
7.72			CCOc1ccccc1-n1nc2c(c1-c1ccc(Cl)cc1)CC(N1CCCC1=O)C2 (centres unmarked) [Compound 40, 1-[3-(4-chlorophenyl)-2-(2-ethoxyphenyl)-2,4,5,6-tetrahydrocyclopenta[c]pyrazol-5-yl]pyrrolidin-2-one]
7.28		76%	COc1ccccc1-n1nc2c(c1-c1ccc(Cl)cc1)C[C@@H](OC)C2 [Compound 49, (5R)-3-(4-chlorophenyl)-5-methoxy-2-(2-methoxyphenyl)-2,4,5,6-tetrahydrocyclopenta[c]pyrazole]
6.89		64%	COc1cc(Cl)ccc1-n1nc2c(c1-c1ccc(Cl)cc1)CC1(C2)OCCCO1 [Compound 52, 2-(4-Chloro-2-methoxyphenyl)-3-(4-chlorophenyl)-2,6-dihydro-4H-spiro[cyclopenta[c]pyrazole-5,2′-[1,3]dioxane]]
		31%	COc1ccccc1-n1nc2c(c1-c1ccc(Cl)cc1)C/C(=N/O)C2 [Compound 53, (5Z)-3-(4-chlorophenyl)-2-(2-methoxyphenyl)-2,6-dihydrocyclopenta[c]pyrazol-5(4H)-one oxime]
6.89		65%	COc1ccccc1-n1nc2c(c1-c1ccc(Cl)cc1)C[C@H](Oc1ccccc1)C2 [Compound 58, (5S)-3-(4-chlorophenyl)-2-(2-methoxyphenyl)-5-phenoxy-2,4,5,6-tetrahydrocyclopenta[c]pyrazole]
7.03		76%	COc1ccccc1-n1nc2c(c1-c1ccc(Cl)cc1)C[C@H](Oc1cccnc1)C2 [Compound 59, (5S)-3-(4-chlorophenyl)-2-(2-methoxyphenyl)-5-(pyridin-3-yloxy)-2,4,5,6-tetrahydrocyclopenta[c]pyrazole]
6.55		62%	COc1ccccc1-n1nc2c(c1-c1ccc(Cl)cc1)CC(c1ccc(OC(C)C)nc1)C2 (centres unmarked) [Compound 60, 3-(4-chlorophenyl)-2-(2-methoxyphenyl)-5-[6-(1-methylethoxy)pyridin-3-yl]-2,4,5,6-tetrahydrocyclopenta[c]pyrazole]
7.01		77%	COc1ccccc1-n1nc2c(c1-c1ccc(Cl)cc1)C[C@@H](Oc1ccccn1)C2 [Compound 61, (5R)-3-(4-chlorophenyl)-2-(2-methoxyphenyl)-5-(pyridin-2-yloxy)-2,4,5,6-tetrahydrocyclopenta[c]pyrazole]
		42%	COc1ccccc1-n1nc2c(c1-c1ccc(Cl)cc1)CC(c1ccc(N3CCOCC3)nc1)C2 (centres unmarked) [Compound 62, 3-(4-chlorophenyl)-2-(2-methoxyphenyl)-5-(6-morpholin-4-ylpyridin-3-yl)-2,4,5,6-tetrahydrocyclopenta[c]pyrazole]
6.55		66%	COc1ccccc1-n1nc2c(c1-c1ccc(Cl)cc1)CC(C1CCC(C)(C)CC1)C2 (centres unmarked) [Compound 64, 3-(4-chlorophenyl)-5-(4,4-dimethylcyclohexyl)-2-(2-methoxyphenyl)-2,4,5,6-tetrahydrocyclopenta[c]pyrazole]
